# System: JFH-1 HCV
# Conditions: relative to mock-treated HCV infected control; doses in μM
# From the text: In vitro assay for anti-HCV efficacy. HCV studies typically involve infected patients and chimpanzees. However, recently, a robust HCV infection system was developed with cells derived from the Huh-7 human hepatoma cell line. It is based on the unique JFH-1 HCV consensus cDNA derived from an HCV patient. Using reverse genetics, the infectious virus can be rescued from this HCV clone. The recovered viable JFH virus can be passaged serially in Huh-7 cells. For this reason, this system is amenable for evaluating the activity of test compound for their anti-HCV efficacy.
# Briefly, 6×10^3 Huh7-1 cells are incubated overnight in each well of collagen-coated BioCoat 96-well plates (BD Biosciences, Bedford, Mass.) in 0.2 ml 10% medium composed of Dulbecco's modified Eagle's medium supplemented with 10% fetal bovine serum. Subsequently, at 2 day intervals, the cultures are replenished with fresh 0.2 ml 10% medium. After the cultures become confluent, they continue to be replenished at 2 day intervals with fresh 0.2 ml 10% medium that also includes 1% dimethyl sulfoxide (DMSO). After 20 days of these replenishments, the Huh7-1 cultures are incubated with fresh 1% medium (same as 10% medium except that the serum level is 1%) containing HCV at a multiplicity of infection (MOI) of 0.05 focus forming units (ffu)/cell. The HCV (JFH-lwt Huh7) stock titer is 1.5×10^5 ffu/mL. The next day (day 1 post-infection) and 2 days later (day 3 post-infection) the media are replenished with fresh 1% medium containing the test compounds dissolved in DMSO. On the 5th day of treatment with the compounds, cell lysates are collected for RNA isolation and Real Time-quantitative Reverse Transcription Polymerase Chain Reaction (RT-qPCR) and culture media are collected for cytotoxicity analysis.
# Total RNA is isolated from cells by the guanidine thiocyanate method using standard protocols. One μg RNA is used for cDNA synthesis using TaqMan reverse transcription reagents (Applied Biosystems, Foster City, Calif.) followed by real-time PCR using an Applied Biosystems 7300 real-time thermocycler. Thermal cycling consists of initial denaturation of 10 min at 95° C. followed by 40 cycles of denaturation (15 s at 95° C.) and annealing/extension (1 m at 60° C.). HCV and human glyceraldehyde-3-phosphate dehydrogenase (GAPDH) RNA levels are determined relative to a standard curve of serial dilutions of plasmid containing JFH-1 HCV or GAPDH cDNA. The PCR primers used to detect GAPDH and HCV are: GAPDH (NMX002046) 5′-[…]-3′(SEQ ID NO: 16) (sense) and 5′-[…]-3′(SEQ ID NO: 17) (anti-sense) JFH-1 HCV (AB047639) 5′-[…]-3′(SEQ ID NO: 18) (sense) and 5′-[…]-3′(SEQ ID NO: 19) (anti-sense).
row,SMILES,"intracellular HCV RNA levels (FIGS. 1A, 1B, 1C)"
1,O=C(Nc1ccc(Oc2ccccc2F)cc1)C1CCN(Cc2cccc3c2OCO3)CC1 [Example 28],dose dependent decrease in HCV RNA levels

# Same assay, conditions: viral titer at 5 μM or 15 μM compared to untreated control
row,SMILES,HCV Antiviral Activity
1,O=C(Nc1cccc(-c2ccco2)c1)C1CCN(Cc2cccc3cccnc23)CC1 [Example 40],+ (“+” corresponds to ≦60% viral titer at 15 μM)
2,COc1cccc(CN2CCC(C(=O)Nc3cccc(-c4cccc(F)c4)c3)CC2)c1O [Example 91],++ (“++” corresponds to ≦60% viral titer at 5 μM)
3,O=C(Nc1cccc(-c2cccc(F)c2)c1)C1CCN(Cc2cccc3c2OCO3)CC1 [Example 56],− (“−” corresponds to >60% viral titer at 15 μM (highest concentration tested))
4,COc1cccc(CN2CCC(C(=O)Nc3cccc(-c4cccc(F)c4)c3)CC2)c1OC [Example 84],+ (“+” corresponds to ≦60% viral titer at 15 μM)
5,COc1cccc(-c2ccccc2NC(=O)C2CCN(Cc3cc(C)ccc3C)CC2)c1 [Example 88],+ (“+” corresponds to ≦60% viral titer at 15 μM)
6,CCc1nc(CN2CCC(C(=O)Nc3cccc(-c4cccc(F)c4)c3)CC2)c(C)[nH]1 [Example 68],+ (“+” corresponds to ≦60% viral titer at 15 μM)
7,O=C(Nc1cccc(-c2cscn2)c1)C1CCN(Cc2cccc(-c3ccco3)c2)CC1 [Example 35],+ (“+” corresponds to ≦60% viral titer at 15 μM)
8,O=C(Nc1ccc(Oc2ccccc2)nc1)C1CCN(Cc2ccccc2)CC1 [Example 77],++ (“++” corresponds to ≦60% viral titer at 5 μM)
9,COc1ccccc1CN1CCC(C(=O)Nc2ccc(-c3nc4ccccc4[nH]3)cc2)CC1 [Example 23],+++ (“+++” corresponds to ≦30% viral titer at 5 μM)
10,COc1ccc(CN2CCC(C(=O)Nc3ccc(Oc4ccccc4F)cc3)CC2)c(O)c1 [Example 21],+++ (“+++” corresponds to ≦30% viral titer at 5 μM)
11,O=C(Nc1ccc(Oc2ccccc2)nc1)C1CCN(Cc2ccc(Cl)s2)CC1 [Example 83],++ (“++” corresponds to ≦60% viral titer at 5 μM)
12,O=C(Nc1cccc(-c2ccco2)c1)C1CCN(Cc2nc3ccc(F)cc3[nH]2)CC1 [Example 49],− (“−” corresponds to >60% viral titer at 15 μM (highest concentration tested))
13,CCCCc1nc(CN2CCC(C(=O)Nc3cccc(-c4cccc(F)c4)c3)CC2)c[nH]1 [Example 27],++ (“++” corresponds to ≦60% viral titer at 5 μM)
14,O=C(Nc1ccc(-c2nc3ccccc3[nH]2)cc1)C1CCN(Cc2cc3ccccc3[nH]2)CC1 [Example 47],− (“−” corresponds to >60% viral titer at 15 μM (highest concentration tested))
15,O=C(Nc1cccc(-c2ccco2)c1)C1CCN(C(=O)CCc2ccco2)CC1 [Example 53],− (“−” corresponds to >60% viral titer at 15 μM (highest concentration tested))
16,Cc1nn(C(C)C)c(C)c1CN1CCC(C(=O)Nc2cccc(-c3cccc(F)c3)c2)CC1 [Example 76],++ (“++” corresponds to ≦60% viral titer at 5 μM)
17,COc1cccc(O)c1CN1CCC(C(=O)Nc2cccc(-c3cccc(F)c3)c2)CC1 [Example 30],+ (“+” corresponds to ≦60% viral titer at 15 μM)
18,COc1cccc(CN2CCC(C(=O)Nc3ccc(Oc4ccccc4F)cc3)CC2)c1O [Example 61],++ (“++” corresponds to ≦60% viral titer at 5 μM)
19,O=C(Nc1ccc(Oc2ccccc2F)cc1)C1CCN(Cc2cccc3c2OCO3)CC1 [Example 28],++ (“++” corresponds to ≦60% viral titer at 5 μM)
20,O=C(Nc1cccc(-c2cccc(F)c2)c1)C1CCN(Cc2ccc3nsnc3c2)CC1 [Example 90],+ (“+” corresponds to ≦60% viral titer at 15 μM)
